In patent US20110177054A1, “USE OF ENDO-LYSOSOMAL SYSTEM AND SECRETED VESICLES (EXOSOME-LIKE) IN TREATMENTS AND DIAGNOSTICS BASED ON SMALL RNA AND EXPERIMENTAL STUDY OF SMALL RNA” (priority 2008, published 2011):

Tested on: multivesicular body (MVB)
Assay: Confocal microscopy of N-Rh-PE labelled MVB and GFP-GW182 after siRNA transfection
Assay type: cell-based
Experimental: FIG. 4: Members of the ESCRT complex affect miRNA activity but not localization of GW182 to the MVB. (A) Confocal micrography showing cells loaded with N-Rh-PE to label the MVB one day after transfection with GFP-GW182 and 50 nM of siRNA targeting Alix or vps36. […] Knockdown of some members of the ESCRT complex inhibits activity of Let-7a. Analysis of the levels of Let-7a vs mutated site expression for the control, tsg101, vps36, hrs, alix, and GW 182. Cells were transfected with plasmids expressing Renilla luciferase attached to an intact or mutated Let-7a target site, 50 nM siRNA, and pGL3 expressing firefly luciferase (n=6). (C) Knockdown of some members of the ESCRT complex inhibits activity of miR-206. Analysis of the percentage of expression of miR-206 target for the control, tsg101, vps36, hrs, alix, and GW 182. Cells were transfected with 50 nM siRNA, plasmids expressing miR-206 or miR-K12-4 and the estrogen receptor 3′UTR inserted in the dual luciferase plasmid psiCHECK™ (Promega) (n=4). Thirty hours later luciferase activity as assessed.
FIG. 12: Knockdown of ESCRT complex components compromises miRNA activities. (a) GW182, but not Dcp1a associates with ubiquitinated proteins. Immunoprecipitating antibody is shown above lane, blotting antibody is inscribed in white (b) Knockdown of ESCRT complex components causes accumulation of GW182. (c) Co-localization of GFP-GW182 and N-Rh-PE was examined 36 h after siRNA transfection. […] U6 RNA was used as a loading control. (e) Knockdown of some members of the ESCRT complex inhibits activity of miR-206. (Anova, n=3, p=0.015, F=6.577, a=0.05). Lack of detectable miR206 expression in monocytic cells and accumulation of miR206 upon monocyte transfection were confirmed by northern blot.
Cells were concentrated by centrifugation (90 g, 5 min), resuspended in culture media, and analyzed immediately. Images were captured with a Zeiss LSM 510 confocal microscope with 488 nm and 561 nm lasers using the smallest planes (0.4-1.2 μm) allowed by the brightness of the fluorophores used and a 63× objective lens. Filters used were 500-530 nm (GFP) and 550-650 (N-Rhodamine-PhosphatidylEthanolamine, […] (RFP)). Images were analyzed using ImageJ.
Procedures were performed as described (Vidal, M., Mangeat, P., & Hoekstra, D. Aggregation reroutes molecules from a recycling to a vesicle-mediated secretion pathway during reticulocyte maturation. J. Cell Sci. 110, 1867-1877 (1997)). Essentially, cells were washed twice in PBS and 3 μM N-Rh-PE (Avanti Polar Lipids, Alabaster, Ala., USA) in ethanol was injected with a Hamilton syringe into the cell suspension. After vortexing cells were incubated for 1.5 h at 4° C. Cells were washed twice, resuspended in culture media and incubated at 37° C. with 5% CO2 for 4 h before confocal analysis.
Images were captured with a Zeiss LSM 510 confocal microscope with 488 nm and 561 nm lasers and a 63× objective lens. Filters used were 500-530 nm (GFP) and 550-650 nm (N-Rh-PE, RFP).
The Mono-Mac6 cell line (DSMZ, Braunschweig, Germany ACC-124) was cultured in RPMI 1640 containing 10% FBS, non-essential amino acids (Invitrogen, Paris, France), and OPI media supplement (Sigma-Aldrich). Alternatively, Mono-Mac6 were cultured in X-Vivo-15 serum-free media (Lonza, Levallois, France). Hela cells were grown in DMEM supplemented with 5% FBS. Cells were loaded with 3 μM N-Rh-PE (Avanti Polar Lipids, Alabaster, Ala., USA) as described (Vidal, M., Mangeat, P. & Hoekstra, D. Aggregation reroutes molecules from a recycling to a vesicle-mediated secretion pathway during reticulocyte maturation. J Cell Sci 110 (Pt 16), 1867-77 (1997)).

[1] = Example 2, 36 h after siRNA transfection

Alix siRNA: Qiagen siRNA targeting Alix: AAGAGCTGTGTGTTGTTCAAT (SEQ ID NO. 5), GAGGTACTTTATACTAACATA (SEQ ID NO. 6) (two separate commercial siRNAs, chemistry not given here)
co-localization of GW182 with MVB (Example 1, 50 nM siRNA, GFP-GW182 and N-Rh-PE): not grossly disrupted | MVB size / perinuclear distribution (Example 1, 50 nM siRNA, in some cells): increase in the perinuclear distribution of MVB | GFP-GW182 localization to MVB [1]: remained unaltered | MVB size / perinuclear distribution [1]: enhanced perinuclear MVB distribution

Hrs siRNA: Qiagen siRNA targeting Hrs: CCGGAACGAGCCCAAGTACAA (SEQ ID NO. 1), GCACGTCTTTCCAGAATTCAA (SEQ ID NO. 2) (two separate commercial siRNAs, chemistry not given here)
GFP-GW182 localization to MVB [1]: remained unaltered
